From publication PMC12088830 (Xenobiotica; the fate of foreign compounds in biological …, 2021)

Tests used:
[1] = tested on: hPTECs; test: Viability assay; format: cell-based, human
[2] = tested on: ABCB1; test: Gene expression; format: cell-based, human
[3] = tested on: SLCO4C1; test: Gene expression; format: cell-based, human; conditions: uraemic serum 24 h, then 240 nM for six days
[4] = tested on: CYP2R1; test: Protein expression; format: cell-based, human
[5] = tested on: P-gp; test: Protein expression; format: cell-based, human; conditions: 240 nM for six days
[6] = tested on: OATP4C1; test: Protein expression; format: cell-based, human; conditions: for Effect on OATP4C1 protein expression: normal serum
[7] = tested on: hPTEC monolayer
[8] = tested on: CYP24A1; conditions: HepG2 cells; 4 nM dose; ref Horvath et al 2012; cited from earlier work
[9] = tested on: P-gp and MRP4; conditions: Caco-2 cells; 3 day treatment, 100 nM; ref Maeng et al 2012; cited from earlier work
[10] = tested on: CYP2R1; test: Gene expression; conditions: for CYP2R1 mRNA expression compared to normal serum + VEH: normal serum 24 h; for CYP2R1 mRNA expression relative to VEH + normal serum: uraemic serum 24 h
[11] = tested on: CYP24A1; test: Gene expression
[12] = in vitro; conditions: human
[13] = normal serum 24 h, then 100 nM for six days
[14] = normal serum 24 h, then 240 nM for six days
[15] = uraemic serum 24 h, then 100 nM for six days

SMILES: C=C1/C(=C\C=C2/CCC[C@]3(C)[C@@H]([C@H](C)CCCC(C)(C)O)CC[C@@H]23)C[C@@H](O)C[C@@H]1O [1,25-VitD3, calcitriol]
- Effect on increasing cell viability relative to VEH ([1]; uraemic serum 24 h pre-treatment, then 100 nM and 240 nM for six days): no significant effects
- ABCB1 mRNA expression compared to normal serum + VEH [2, 13]: 8.8 fold
- ABCB1 mRNA expression compared to normal serum + VEH [2, 14]: 7.6 fold
- ABCB1 mRNA expression compared to normal serum + VEH [2, 15]: 10 fold
- SLCO4C1 mRNA expression compared to normal serum + VEH [3]: 3.3 fold
- Decrease in CYP2R1 protein expression under uraemic conditions compared to the same treatment with normal serum ([4]; 100 nM for six days): 38%
- Decrease in CYP2R1 protein expression under uraemic conditions compared to the same treatment with normal serum ([4]; 240 nM for six days): 64%
- Increase in P-gp protein expression with uraemic serum compared to the same treatment with normal serum [5]: 1.44 fold
- Decrease in OATP4C1 protein expression relative to normal serum + VEH ([6]; 240 nM for six days): 54%
- Effect on OATP4C1 protein expression ([6]; 100 nM for six days): no effect
- Effect on efflux ratio of [3H]digoxin ([7]; 240 nM for six days, normal or uraemic serum): did not have a significant effect
- CYP24A1 expression increase [8]: 5,300 fold
- Effect on P-gp and MRP4 transport activity (basolateral to apical transport of adefovir dipivoxil) [9]: Increased P-gp and MRP4 transport activity
- CYP2R1 mRNA expression compared to normal serum + VEH ([10]; then 240 nM for six days): 4.7 fold
- CYP2R1 mRNA expression relative to VEH + normal serum ([10]; then 100 nM for six days): 4.8 fold
- CYP2R1 mRNA expression relative to VEH + normal serum ([10]; then 240 nM for six days): 4.0 fold
- CYP24A1 mRNA expression compared to normal serum + VEH [11, 13]: 8706 fold
- CYP24A1 mRNA expression compared to normal serum + VEH [11, 14]: 9483 fold
- CYP24A1 mRNA expression compared to normal serum + VEH [11, 15]: 4967 fold
- CYP24A1 mRNA expression compared to normal serum + VEH ([11]; uraemic serum 24 h, then 240 nM for six days): 5343 fold

SMILES: C=C1CC[C@H](O)C/C1=C/C=C1\CCC[C@]2(C)[C@@H]([C@H](C)CCCC(C)C)CC[C@@H]12 [VitD3, cholecalciferol]
- Effect on cell viability ([1]; normal or uraemic serum, 100 or 240 nM for six days): no significant effects
- Effect on ABCB1 mRNA expression ([2]; 100 or 240 nM for six days, normal or uraemic serum): no effect
- Effect on OATP4C1 protein expression ([6]; 240 nM for six days): no effect
- Increase in CYP2R1 mRNA expression under uraemic conditions compared to normal serum (same treatment) ([10]; 100 nM for six days): 45%
- CYP2R1 mRNA expression compared to normal serum + VEH ([10]; then 240 nM for six days): 3.6 fold
- CYP2R1 mRNA expression relative to VEH + normal serum ([10]; then 100 nM for six days): 3.1 fold

SMILES: C[C@H]1O[C@@H](O[C@H]2[C@@H](O)C[C@H](O[C@H]3[C@@H](O)C[C@H](O[C@H]4CC[C@@]5(C)[C@H](CC[C@@H]6[C@@H]5C[C@@H](O)[C@]5(C)[C@@H](C7=CC(=O)OC7)CC[C@]65O)C4)O[C@@H]3C)O[C@@H]2C)C[C@H](O)[C@@H]1O [[^3H]digoxin, digoxin]
- Digoxin transport in the B→A direction ([7]; one hour post digoxin dosing, normal serum + VEH): 29.9 ± 2.4%
- Papp A→B at 33.5 μM [12]: 3.9 ± 0.14 ×10⁻⁶ cm/s
- Papp A→B at 6 h, 33.5 μM [12]: 4.1 ± 0.27 ×10⁻⁶ cm/s
